Reference: patent publication US8076487B2, “Pyridone derivative and herbicide” (Kumiai Chemical Industry Co., Ltd., priority 2006, dated 2011)

Key:
Assay type in all cases: in vivo
[1] = tested on: Japanese bulrush (Scirpus juncoides Roxb.); assay: Test Example 1: herbicidal effect by soil application to paddy field; conditions: paddy field soil application; active ingredient 1,000 g per 1 hectare; wettable powder added dropwise to water surface the day after sowing; examined on the 21st day after application
Outline: (§1)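 Plants were sown in flooded (3 cm) paddy soil and evaluated for herbicidal effect 21 days after soil application in a greenhouse.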

[2] = tested on: early watergrass (Echinochloa oryzicola Vasing); assay: as above; conditions: paddy field soil application; active ingredient 1,000 g per 1 hectare; wettable powder added dropwise to water surface the day after sowing; examined on the 21st day after application
Outline: as §1

[3] = tested on: heartshape false pickerelweed (Monochoria vaginalis (Burm.f.) C.Presl); assay: as above; conditions: paddy field soil application; active ingredient 1,000 g per 1 hectare; wettable powder added dropwise to water surface the day after sowing; examined on the 21st day after application
Outline: as §1

[4] = tested on: barnyardgrass (Echinochloa crus-galli (L.) P. Beauv. var. crus-galli); assay: Test Example 2: herbicidal effect by soil application to upland field; conditions: soil surface spray, upland field soil, 1,000 g active ingredient per hectare, 21st day after application
Outline: (§2)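 A standard visual rating of herbicidal effect, made 21 days after treatment, gives the value. Treatment consisted of a uniform spray of water-diluted wettable powder on the soil covering newly sown seeds, equivalent to 1,000 g active ingredient and 1,000 liters per hectare.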

[5] = tested on: green foxtail (Setaria viridis (L.) P. Beauv.); assay: as above; conditions: soil surface spray, upland field soil, 1,000 g active ingredient per hectare, 21st day after application
Outline: as §2

[6] = tested on: slender amaranth (Amaranthus viridis L.); assay: as above; conditions: soil surface spray, upland field soil, 1,000 g active ingredient per hectare, 21st day after application
Outline: as §2

[7] = tested on: velvetleaf (Abutilon theophrasti medicus); assay: as above; conditions: soil surface spray, upland field soil, 1,000 g active ingredient per hectare, 21st day after application
Outline: as §2

[8] = tested on: barnyardgrass (Echinochloa crus-galli (L.) P. Beauv. var. crus-galli); assay: Test Example 3: herbicidal effect by application to upland field (foliage treatment); conditions: 14th day after application; for herbicidal effect (index), Barnyardgrass: foliage treatment, plants grown two weeks, 1,000 g active ingredient per hectare; for herbicidal effect, Barnyardgrass: foliage treatment, 1,000 g active ingredient per 1 hectare, greenhouse
Outline: (§3)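 Upland foliage test in greenhouse pots of field soil: seedlings sprayed at two weeks post-sowing with 1,000 g/ha active ingredient (wettable powder, 1,000 L water/ha). Scored 14 d after application.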

[9] = tested on: green foxtail (Setaria viridis (L.) P. Beauv.); assay: as above; conditions: 14th day after application; for herbicidal effect (index), Green Foxtail: foliage treatment, plants grown two weeks, 1,000 g active ingredient per hectare; for herbicidal effect, Green Foxtail: foliage treatment, 1,000 g active ingredient per 1 hectare, greenhouse
Outline: as §3

[10] = tested on: slender amaranth (Amaranthus viridis L.); assay: as above; conditions: 14th day after application; for herbicidal effect (index), Slender Amaranth: foliage treatment, plants grown two weeks, 1,000 g active ingredient per hectare; for herbicidal effect, Slender Amaranth: foliage treatment, 1,000 g active ingredient per 1 hectare, greenhouse
Outline: as §3

[11] = tested on: velvetleaf (Abutilon theophrasti medicus); assay: as above; conditions: 14th day after application; for herbicidal effect (index), Velvetleaf: foliage treatment, plants grown two weeks, 1,000 g active ingredient per hectare; for herbicidal effect, Velvetleaf: foliage treatment, 1,000 g active ingredient per 1 hectare, greenhouse
Outline: as §3

Row | SMILES | herbicidal effect, Scirpus juncoides Roxb. [1] | herbicidal effect, Echinochloa oryzicola Vasing [2] | herbicidal effect, Monochoria vaginalis (Burm. f.) C. Presl [3] | herbicidal effect (index), Barnyardgrass [4] | herbicidal effect (index), Green Foxtail [5] | herbicidal effect (index), Slender Amaranth [6] | herbicidal effect (index), Velvetleaf [7] | herbicidal effect (index), Barnyardgrass [8] | herbicidal effect (index), Green Foxtail [9] | herbicidal effect (index), Slender Amaranth [10] | herbicidal effect (index), Velvetleaf [11] | herbicidal effect, Barnyardgrass [8] | herbicidal effect, Green Foxtail [9] | herbicidal effect, Slender Amaranth [10] | herbicidal effect, Velvetleaf [11]
1 | CS(=O)(=O)c1ccc(-n2c(C(F)(F)F)ccc(C(=O)C3=C(O)CCCC3=O)c2=O)cc1 [I-83] | 5 (90% or more of herbicidal effect and crop phytotoxicity) | 5 (90% or more of herbicidal effect and crop phytotoxicity) | 5 (90% or more of herbicidal effect and crop phytotoxicity) | 5 (90% or more of herbicidal effect and crop phytotoxicity) | 5 (90% or more of herbicidal effect and crop phytotoxicity) | 5 (90% or more of herbicidal effect and crop phytotoxicity) | 5 (90% or more of herbicidal effect and crop phytotoxicity) | 5 (90% or more of herbicidal effect and crop phytotoxicity) | 5 (90% or more of herbicidal effect and crop phytotoxicity) | 5 (90% or more of herbicidal effect and crop phytotoxicity) | 5 (90% or more of herbicidal effect and crop phytotoxicity) |  |  |  | 
2 | COCC(C)n1c(C(F)(F)F)ccc(C(=O)c2cnn(C)c2O)c1=O (stereo not shown) [IV-36] | 5 (90% or more of herbicidal effect and crop phytotoxicity) | 5 (90% or more of herbicidal effect and crop phytotoxicity) | 5 (90% or more of herbicidal effect and crop phytotoxicity) | 5 (90% or more of herbicidal effect and crop phytotoxicity) | 3 (50 to less than 70% of herbicidal effect and crop phytotoxicity) | 5 (90% or more of herbicidal effect and crop phytotoxicity) | 5 (90% or more of herbicidal effect and crop phytotoxicity) |  |  |  |  | 5 (90% or more of herbicidal effect and crop phytotoxicity) | 5 (90% or more of herbicidal effect and crop phytotoxicity) | 5 (90% or more of herbicidal effect and crop phytotoxicity) | 5 (90% or more of herbicidal effect and crop phytotoxicity)
3 | O=C1CCCC(O)=C1C(=O)c1ccc(C(F)(F)F)n(-c2ccc(F)cc2F)c1=O [I-102] | 5 (90% or more of herbicidal effect and crop phytotoxicity) | 5 (90% or more of herbicidal effect and crop phytotoxicity) | 5 (90% or more of herbicidal effect and crop phytotoxicity) | 5 (90% or more of herbicidal effect and crop phytotoxicity) | 5 (90% or more of herbicidal effect and crop phytotoxicity) | 5 (90% or more of herbicidal effect and crop phytotoxicity) | 5 (90% or more of herbicidal effect and crop phytotoxicity) | 5 (90% or more of herbicidal effect and crop phytotoxicity) | 5 (90% or more of herbicidal effect and crop phytotoxicity) | 5 (90% or more of herbicidal effect and crop phytotoxicity) | 5 (90% or more of herbicidal effect and crop phytotoxicity) |  |  |  | 
4 | CCS(=O)(=O)Cn1c(C(F)(F)F)ccc(C(=O)C2=C(O)CCCC2=O)c1=O [I-49] | 5 (90% or more of herbicidal effect and crop phytotoxicity) | 5 (90% or more of herbicidal effect and crop phytotoxicity) | 5 (90% or more of herbicidal effect and crop phytotoxicity) | 5 (90% or more of herbicidal effect and crop phytotoxicity) | 4 (70 to less than 90% of herbicidal effect and crop phytotoxicity) | 5 (90% or more of herbicidal effect and crop phytotoxicity) | 5 (90% or more of herbicidal effect and crop phytotoxicity) | 5 (90% or more of herbicidal effect and crop phytotoxicity) | 5 (90% or more of herbicidal effect and crop phytotoxicity) | 5 (90% or more of herbicidal effect and crop phytotoxicity) | 5 (90% or more of herbicidal effect and crop phytotoxicity) |  |  |  | 
5 | CN(C)C=Nn1c(C(F)(F)F)ccc(C(=O)C2=C(O)CCCC2=O)c1=O [I-186] | 5 (90% or more of herbicidal effect and crop phytotoxicity) | 5 (90% or more of herbicidal effect and crop phytotoxicity) | 5 (90% or more of herbicidal effect and crop phytotoxicity) | 5 (90% or more of herbicidal effect and crop phytotoxicity) | 5 (90% or more of herbicidal effect and crop phytotoxicity) | 5 (90% or more of herbicidal effect and crop phytotoxicity) | 5 (90% or more of herbicidal effect and crop phytotoxicity) |  |  |  |  | 5 (90% or more of herbicidal effect and crop phytotoxicity) | 5 (90% or more of herbicidal effect and crop phytotoxicity) | 5 (90% or more of herbicidal effect and crop phytotoxicity) | 5 (90% or more of herbicidal effect and crop phytotoxicity)
6 | Cn1ncc(C(=O)c2ccc(C(F)(F)F)n(C)c2=O)c1OC(=O)OCc1ccc(Cl)cc1 [IV-200] | 5 (90% or more of herbicidal effect and crop phytotoxicity) | 5 (90% or more of herbicidal effect and crop phytotoxicity) | 5 (90% or more of herbicidal effect and crop phytotoxicity) | 5 (90% or more of herbicidal effect and crop phytotoxicity) | 4 (70 to less than 90% of herbicidal effect and crop phytotoxicity) | 5 (90% or more of herbicidal effect and crop phytotoxicity) | 5 (90% or more of herbicidal effect and crop phytotoxicity) |  |  |  |  | 4 (70 to less than 90% of herbicidal effect and crop phytotoxicity) | 3 (50 to less than 70% of herbicidal effect and crop phytotoxicity) | 5 (90% or more of herbicidal effect and crop phytotoxicity) | 5 (90% or more of herbicidal effect and crop phytotoxicity)
7 | CCCn1c(C(F)(F)F)ccc(C(=O)C2=C(O)C3CCC(C3)C2=O)c1=O (stereo not shown) [III-3] | 5 (90% or more of herbicidal effect and crop phytotoxicity) | 5 (90% or more of herbicidal effect and crop phytotoxicity) | 5 (90% or more of herbicidal effect and crop phytotoxicity) | 5 (90% or more of herbicidal effect and crop phytotoxicity) | 5 (90% or more of herbicidal effect and crop phytotoxicity) | 5 (90% or more of herbicidal effect and crop phytotoxicity) | 5 (90% or more of herbicidal effect and crop phytotoxicity) |  |  |  |  | 5 (90% or more of herbicidal effect and crop phytotoxicity) | 5 (90% or more of herbicidal effect and crop phytotoxicity) | 5 (90% or more of herbicidal effect and crop phytotoxicity) | 5 (90% or more of herbicidal effect and crop phytotoxicity)
8 | O=C1CCCC(O)=C1C(=O)c1ccc(C(F)(F)F)n(-c2ccc(Cl)c(Cl)c2)c1=O [I-98] | 5 (90% or more of herbicidal effect and crop phytotoxicity) | 5 (90% or more of herbicidal effect and crop phytotoxicity) | 5 (90% or more of herbicidal effect and crop phytotoxicity) | 5 (90% or more of herbicidal effect and crop phytotoxicity) | 5 (90% or more of herbicidal effect and crop phytotoxicity) | 5 (90% or more of herbicidal effect and crop phytotoxicity) | 5 (90% or more of herbicidal effect and crop phytotoxicity) | 5 (90% or more of herbicidal effect and crop phytotoxicity) | 5 (90% or more of herbicidal effect and crop phytotoxicity) | 5 (90% or more of herbicidal effect and crop phytotoxicity) | 5 (90% or more of herbicidal effect and crop phytotoxicity) |  |  |  | 
